{"source": "paper PMC10272112", "about": "(Nature Communications, 2023)", "key": {"TwinStrep-GST-HDAC10": {"molecular_target": "T1, TwinStrep-GST-HDAC10 (Homo sapiens, UniProt Q969S8)", "T1 sequence (Q969S8 1-669)": "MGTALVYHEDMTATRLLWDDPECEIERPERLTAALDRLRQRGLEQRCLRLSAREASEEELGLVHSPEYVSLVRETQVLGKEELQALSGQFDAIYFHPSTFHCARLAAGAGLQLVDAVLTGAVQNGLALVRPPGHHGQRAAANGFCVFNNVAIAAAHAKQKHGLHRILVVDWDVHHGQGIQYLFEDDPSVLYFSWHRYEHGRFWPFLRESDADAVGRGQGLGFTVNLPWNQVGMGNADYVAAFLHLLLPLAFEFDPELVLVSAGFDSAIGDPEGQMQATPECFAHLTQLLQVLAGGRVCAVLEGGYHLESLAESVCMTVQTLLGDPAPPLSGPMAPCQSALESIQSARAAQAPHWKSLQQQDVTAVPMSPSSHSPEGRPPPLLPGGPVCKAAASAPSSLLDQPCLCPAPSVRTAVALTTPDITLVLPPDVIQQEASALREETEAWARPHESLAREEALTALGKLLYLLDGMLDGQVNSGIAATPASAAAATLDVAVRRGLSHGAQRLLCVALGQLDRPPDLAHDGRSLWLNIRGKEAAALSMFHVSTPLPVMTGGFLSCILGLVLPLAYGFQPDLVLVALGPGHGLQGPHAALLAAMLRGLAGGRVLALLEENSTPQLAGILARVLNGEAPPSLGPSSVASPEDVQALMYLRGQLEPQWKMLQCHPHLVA", "assay": "HDAC10 TR-FRET assay", "format": "binding", "conditions": "sheet S2e", "experimental": "(§1) To validate the inhibition of HDACs by LA and LM and elaborate on the structure-activity relationship (SAR) of enantiomers as well as oxidized versus reduced forms of the molecules, we performed enzyme activity assays for recombinant HDAC1,2,3,6,8 as well as FRET-based binding assay for recombinant HDAC10.\nInhibitors with a D300e Digital Dispenser (Tecan). After drug dosing to the premixed assay reagents in buffer, plates were shaken (800 rpm orbital shaker, 30 s), centrifuged (300g, 1 min), and incubated at RT in the dark for 90 min. TR-FRET was measured with a CLARIOstar (BMG Labtech) plate reader, equipped with TR-FRET filters."}, "HDAC1": {"molecular_target": "HDAC1 (Homo sapiens, UniProt Q13547)", "sequence (Q13547 whole entry)": "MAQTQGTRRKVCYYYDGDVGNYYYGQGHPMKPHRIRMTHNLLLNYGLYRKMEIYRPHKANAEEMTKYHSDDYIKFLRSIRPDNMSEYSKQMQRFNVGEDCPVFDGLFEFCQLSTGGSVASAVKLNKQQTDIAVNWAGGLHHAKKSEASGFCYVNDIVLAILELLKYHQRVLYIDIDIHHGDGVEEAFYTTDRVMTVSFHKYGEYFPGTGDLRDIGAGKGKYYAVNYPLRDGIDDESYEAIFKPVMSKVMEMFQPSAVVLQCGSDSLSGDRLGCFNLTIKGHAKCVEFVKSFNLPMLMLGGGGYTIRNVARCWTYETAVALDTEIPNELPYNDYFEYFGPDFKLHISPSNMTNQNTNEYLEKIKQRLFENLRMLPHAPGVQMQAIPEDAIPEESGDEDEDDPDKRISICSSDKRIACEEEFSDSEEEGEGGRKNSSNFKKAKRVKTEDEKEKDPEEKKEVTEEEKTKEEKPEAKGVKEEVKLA", "assay": "HDAC-Glo assay", "format": "biochemical", "design": "purchased BPS Bioscience 50051", "conditions": "0.5 M TCEP, listed as SAHA", "experimental": "as §1\nThe experiments were performed according to ref. [48]. […] Drug dosing was performed with a D300e Digital Dispenser (Tecan). HDACs (7 ng/mL for HDAC1, 25 ng/mL for HDAC2, 200 ng/mL for HDAC3/Ncor2 complex, 100 ng/mL for HDAC6, 200 ng/mL for HDAC8) and inhibitors were incubated together at room temperature (RT) for 30 min. After the addition of the HDAC-Glo™ I/II reagent, plates were shaken (800 rpm orbital shaker, 30 s), centrifuged (300 g, 1 min), and incubated at RT for 30 min. Luminescence was detected with a CLARIOstar (BMG Labtech) plate reader."}, "A549 cells": {"test_system": "A549 cells", "assay": "Arsenite-induced stress granule formation (G3BP1 immunofluorescence)", "format": "cell-based", "conditions": "for arsenite-induced stress granule quantification (G3BP1), Mean / arsenite-induced stress granule quantification (G3BP1), Median / arsenite-induced stress granule quantification (G3BP1), individual values: sheet 4b; for arsenite-induced stress granule quantification (G3BP1), individual values: single data points", "experimental": "The acetylation status of proteins can affect their macromolecular associations and the tendency of proteins to phase-separate into liquid condensates such as stress granules. […] After pre-incubation of cells with the compound, stress granule formation was induced using 30 min of arsenite treatment (1 mM). After treatment, cells were fixed for immunofluorescence detection of stress granules via the common stress granule marker protein G3BP1[21].\n0.03 × 10^6 A549 cells were seeded at 4-chamber slides (Thermo, Nunc) and cultured at 37 °C overnight. Cells were treated with HDAC inhibitor SAHA and Lipoic acid or LM for 6 h, followed by 1 mM Arsenite for 30 min. Cells were fixed by 4% PFA and permeabilized by 0.5% Triton X-100/PBS. 10% Goat serum in PBS was used for blocking. After manually selecting an area with cell confluency of 50–80%, 16 pictures were taken randomly around the central point (ZEISS software in-built function). Stress granule marker G3BP1 (Aviva Systems Biology, ARP37713_T100) was visualized and quantified by ImageJ. Statistical analysis was performed with GraphPad Prism."}}, "note": "Where “and” joins values, the source holds several entries; their conditions need not be identical. Identical values can stand only once."}
{"smiles": "O=C(O)CCCCC1CCSS1", "note": "(centres unmarked) [R/S Lipoic Acid]", "values": [{"measurement": "HDAC10 TR-FRET relative signal", "setting": "TwinStrep-GST-HDAC10; log conc -4.58031", "value": "16.6621 and 17.5526 and 13.058"}, {"measurement": "HDAC10 TR-FRET relative signal", "setting": "TwinStrep-GST-HDAC10; log conc -5.16059", "value": "24.6813 and 29.9295 and 28.3509"}, {"measurement": "HDAC10 TR-FRET relative signal", "setting": "TwinStrep-GST-HDAC10; log conc -5.74088", "value": "52.1664 and 54.0588 and 51.0514"}, {"measurement": "HDAC10 TR-FRET relative signal", "setting": "TwinStrep-GST-HDAC10; log conc -6.32148", "value": "88.5435 and 84.6455 and 96.7603"}, {"measurement": "HDAC10 TR-FRET relative signal", "setting": "TwinStrep-GST-HDAC10; log conc -6.92082", "value": "91.5597 and 91.2649 and 101.82"}, {"measurement": "HDAC10 TR-FRET relative signal", "setting": "TwinStrep-GST-HDAC10; log conc -7.57349", "value": "99.4261 and 99.6664 and 105.18"}, {"measurement": "HDAC10 TR-FRET relative signal", "setting": "TwinStrep-GST-HDAC10; log conc -8.06198", "value": "106.58 and 110.725 and 95.693"}]}
{"smiles": "NC(=O)CCCCC1CCSS1", "note": "(centres unmarked) [R/S Lipoic Amide]", "values": [{"measurement": "HDAC10 TR-FRET relative signal", "setting": "TwinStrep-GST-HDAC10; log conc -4", "value": "8.95 and 4.904 and 5.819"}, {"measurement": "HDAC10 TR-FRET relative signal", "setting": "TwinStrep-GST-HDAC10; log conc -6.32148", "value": "8.47 and 4.461 and 8.704"}, {"measurement": "HDAC10 TR-FRET relative signal", "setting": "TwinStrep-GST-HDAC10; log conc -7.57349", "value": "45.0477 and 41.2172 and 50.7784"}, {"measurement": "HDAC10 TR-FRET relative signal", "setting": "TwinStrep-GST-HDAC10; log conc -8.06198", "value": "82.499 and 87.6271 and 84.2057"}]}
{"smiles": "O=C(CCCCCCC(=O)Nc1ccccc1)NO", "note": "[Vorinostat]", "values": [{"measurement": "raw luminescence signal, HDAC1 inhibition", "setting": "HDAC1; log10 M -4.30103, 3 technical replicates", "value": "1951 and 1963 and 1822"}, {"measurement": "raw luminescence signal, HDAC1 inhibition", "setting": "HDAC1; log10 M -5.12407, 3 technical replicates", "value": "3958 and 4231 and 3895"}, {"measurement": "raw luminescence signal, HDAC1 inhibition", "setting": "HDAC1; log10 M -5.94692, 3 technical replicates", "value": "19908 and 20969 and 19762"}, {"measurement": "raw luminescence signal, HDAC1 inhibition", "setting": "HDAC1; log10 M -6.76955, 3 technical replicates", "value": "88503 and 91916 and 93868"}, {"measurement": "raw luminescence signal, HDAC1 inhibition", "setting": "HDAC1; log10 M -7.59346, 3 technical replicates", "value": "248915 and 245579 and 256063"}, {"measurement": "raw luminescence signal, HDAC1 inhibition", "setting": "HDAC1; log10 M -8.41567, 3 technical replicates", "value": "337631 and 344047 and 344507"}, {"measurement": "raw luminescence signal, HDAC1 inhibition", "setting": "HDAC1; log10 M -9.27327, 3 technical replicates", "value": "375556 and 372678 and 377396"}, {"measurement": "raw luminescence signal, HDAC1 inhibition", "setting": "HDAC1; log10 M -10.062, 3 technical replicates", "value": "346292 and 360694 and 357566"}, {"measurement": "arsenite-induced stress granule quantification (G3BP1), Mean", "setting": "A549 cells; SAHA 5 uM", "value": 45.6514}, {"measurement": "arsenite-induced stress granule quantification (G3BP1), Median", "setting": "A549 cells; SAHA 5 uM", "value": 49.1176}, {"measurement": "arsenite-induced stress granule quantification (G3BP1), individual values", "setting": "A549 cells; SAHA 5 uM", "value": "49.2857 and 50.3 and 41.875 and 50.4286 and 49.1176 and 51.2222 and 60.7 and 38.0833 and 56.9 and 30 and 49.3333 and 45.8824 and 50.6667 and 31.4 and 46 and 38.6364 and 52.8182 and 41.7273 and 33"}, {"measurement": "arsenite-induced stress granule quantification (G3BP1), Mean", "setting": "A549 cells; SAHA 10 uM", "value": 35.2798}, {"measurement": "arsenite-induced stress granule quantification (G3BP1), Median", "setting": "A549 cells; SAHA 10 uM", "value": 36}, {"measurement": "arsenite-induced stress granule quantification (G3BP1), individual values", "setting": "A549 cells; SAHA 10 uM", "value": "44.5 and 23.5 and 22.5 and 18.5 and 15.6364 and 31 and 37.5882 and 55.1667 and 42.2 and 33.2 and 29.6923 and 41.5 and 52.75 and 25.3333 and 40.5 and 51.1667 and 36 and 30.8333 and 38.75"}, {"measurement": "effect on stress granule numbers per cell", "setting": "A549 cells; pre-incubation 6 h, then 1 mM arsenite 30 min", "value": "dose-dependent reduction of stress granule numbers per cell"}]}
